From ChEMBL document CHEMBL4813985, “Lead optimization generates selenium-containing miconazole CYP51 inhibitors with improved pharmacological profile for the treatment of fungal infections” (Eur J Med Chem, 2021)
In brackets after ≈: the same amount, converted by molar mass.

Experiments:
[1] = system: MDA-MB-231; experiment: Cytotoxicity against human MDA-MB-231 cells assessed as reduction in cell viability incubated for 96 hrs by MTT assay; settings: MDA-MB-231, 96 h
[2] = system: PC-3; experiment: Cytotoxicity against human PC3 cells assessed as reduction in cell viability incubated for 96 hrs by MTT assay; format: cell-based; settings: PC-3, 96 h, read-out: IC50
[3] = system: Candida albicans; experiment: Antifungal activity against Candida albicans CPCC400616 measured after 24 hrs by broth microdilution assay; format: functional
[4] = system: Candida albicans; experiment: Antifungal activity against Candida albicans ATCC SC5314 measured after 24 hrs by broth microdilution assay; format: functional
[5] = system: [Candida] zeylanoides; experiment: Antifungal activity against Candida zeylanoides CMGCC2.3739 measured after 24 hrs by broth microdilution assay; format: functional; settings: Dujonia zeylanoides
[6] = system: Cryptococcus neoformans; experiment: Antifungal activity against Cryptococcus neoformans CMGCC2.3161 measured after 72 hrs by broth microdilution assay; format: functional
[7] = system: Pichia kudriavzevii; experiment: Antifungal activity against Candida krusei AS2.1045 measured after 24 hrs by broth microdilution assay; format: functional
[8] = system: Nakaseomyces glabratus; experiment: Antifungal activity against Candida glabrata measured after 24 hrs by broth microdilution assay; format: functional
[9] = system: Candida parapsilosis; experiment: Antifungal activity against Candida parapsilosis ATCC 22019 measured after 24 hrs by broth microdilution assay; format: functional; settings: Lodderomyces parapsilosis
[10] = system: Aspergillus fumigatus; experiment: Antifungal activity against Aspergillus fumigatus CMGCC3.7795 measured after 72 hrs by broth microdilution assay; format: functional
[11] = system: Candida albicans; experiment: Antifungal activity against fluconazole-resistant Candida albicans CaR assessed as inhibition of microbial growth after 24 hrs by broth microdilution method; format: functional
[12] = system: Candida albicans; experiment: Antifungal activity against fluconazole-resistant Candida albicans 17# assessed as inhibition of microbial growth after 24 hrs by broth microdilution method; format: functional
[13] = system: Candida albicans; experiment: Antifungal activity against fluconazole-resistant Candida albicans 632 assessed as inhibition of microbial growth after 24 hrs by broth microdilution method; format: functional
[14] = system: Candida albicans; experiment: Antifungal activity against fluconazole-resistant Candida albicans 901 assessed as inhibition of microbial growth after 24 hrs by broth microdilution method; format: functional
[15] = system: Candida albicans; experiment: Antifungal activity against fluconazole-resistant Candida albicans 904 assessed as inhibition of microbial growth after 24 hrs by broth microdilution method; format: functional
[16] = system: Candida albicans; experiment: Potency index, ratio of fluconazole MIC to test compound MIC for Candida albicans CPCC400616 measured after 24 hrs by broth microdilution assay; format: functional

For `CC(=O)O[C@H]1C(=O)[C@@]2(C)[C@H]([C@H](OC(=O)c3ccccc3)[C@]3(O)C[C@H](OC(=O)[C@H](O)[C@@H](NC(=O)c4ccccc4)c4ccccc4)C(C)=C1C3(C)C)[C@]1(OC(C)=O)CO[C@@H]1C[C@@H]2O` [PACLITAXEL], the IC50 [1] was < 1 nM and the IC50 [2] was < 25 nM.
With `COc1cccc([Se]C(Cn2ccnc2)c2ccc(Cl)cc2Cl)c1` (centres undefined) the MIC [3] was 0.25 µg/mL (≈ 0.587 µM), the MIC [4] was 0.03 µg/mL (≈ 0.0704 µM) and the MIC [5] was 0.5 µg/mL (≈ 1.17 µM). For the same compound, the MIC [6] was 0.25 µg/mL (≈ 0.587 µM), the MIC [7] was 0.06 µg/mL (≈ 0.141 µM) and the MIC [8] was 0.5 µg/mL (≈ 1.17 µM). The MIC [9] was 0.5 µg/mL (≈ 1.17 µM), the MIC [10] was 8 µg/mL (≈ 18.8 µM) and the MIC [11] was 8 µg/mL. It also gave an MIC [12] of 2 µg/mL, an MIC [13] of 16 µg/mL and an MIC [14] of 16 µg/mL. For the same compound, the MIC [15] was 4 µg/mL and the Ratio [16] was 8.
In the case of `Cc1ccc([Se]C(Cn2ccnc2)c2ccc(Cl)cc2Cl)cc1` (centres undefined), the MIC [3] is reported as 0.25 µg/mL (≈ 0.609 µM), the MIC [4] is reported as 0.03 µg/mL (≈ 0.0731 µM) and the MIC [5] is reported as 0.25 µg/mL (≈ 0.609 µM). It also gave an MIC [6] of 0.13 µg/mL (≈ 0.317 µM), an MIC [7] of 0.5 µg/mL (≈ 1.22 µM) and an MIC [8] of 0.25 µg/mL (≈ 0.609 µM). It also gave an MIC [9] of 0.5 µg/mL (≈ 1.22 µM), an MIC [10] of 8 µg/mL (≈ 19.5 µM) and an MIC [11] of 32 µg/mL. For the same compound, the MIC [12] was 4 µg/mL, the MIC [13] was 4 µg/mL and the MIC [14] was 8 µg/mL. For the same compound, the MIC [15] was 16 µg/mL and the Ratio [16] was 8.
`CCc1ccc([Se]C(Cn2ccnc2)c2ccc(F)cc2F)cc1` (centres undefined) gave an MIC [3] of 0.13 µg/mL (≈ 0.332 µM), an MIC [4] of 0.13 µg/mL (≈ 0.332 µM) and an MIC [5] of 0.5 µg/mL (≈ 1.28 µM). It also gave an MIC [6] of 0.03 µg/mL (≈ 0.0767 µM), an MIC [7] of 0.13 µg/mL (≈ 0.332 µM) and an MIC [8] of 0.5 µg/mL (≈ 1.28 µM). For the same compound, the MIC [9] was 0.13 µg/mL (≈ 0.332 µM), the MIC [10] was 8 µg/mL (≈ 20.4 µM) and the MIC [11] was 1 µg/mL. It also gave an MIC [12] of 4 µg/mL, an MIC [13] of 1 µg/mL and an MIC [14] of 2 µg/mL. For the same compound, the MIC [15] was 8 µg/mL and the Ratio [16] was 8.
`Cc1cccc([Se]C(Cn2ccnc2)c2ccc(Cl)cc2Cl)c1` (centres undefined) was tested, and the MIC [3] was 0.25 µg/mL (≈ 0.609 µM), the MIC [4] was 0.03 µg/mL (≈ 0.0731 µM) and the MIC [5] was 0.25 µg/mL (≈ 0.609 µM). The MIC [6] was 0.25 µg/mL (≈ 0.609 µM), the MIC [7] was 0.06 µg/mL (≈ 0.146 µM) and the MIC [8] was 1 µg/mL (≈ 2.44 µM). It also gave an MIC [9] of 0.25 µg/mL (≈ 0.609 µM), an MIC [10] of 4 µg/mL (≈ 9.75 µM) and an MIC [11] of 1 µg/mL. For the same compound, the MIC [12] was 1 µg/mL, the MIC [13] was 1 µg/mL and the MIC [14] was 1 µg/mL. For the same compound, the MIC [15] was 1 µg/mL and the Ratio [16] was 8.
For `Cc1ccccc1[Se]C(Cn1ccnc1)c1ccc(Cl)cc1Cl` (centres undefined), the MIC [3] was 0.13 µg/mL (≈ 0.317 µM), the MIC [4] was 0.03 µg/mL (≈ 0.0731 µM) and the MIC [5] was 0.5 µg/mL (≈ 1.22 µM). The MIC [6] was 0.5 µg/mL (≈ 1.22 µM), the MIC [7] was 0.13 µg/mL (≈ 0.317 µM) and the MIC [8] was 0.25 µg/mL (≈ 0.609 µM). It also gave an MIC [9] of 0.5 µg/mL (≈ 1.22 µM), an MIC [10] of 16 µg/mL (≈ 39 µM) and an MIC [11] of 4 µg/mL. For the same compound, the MIC [12] was 2 µg/mL, the MIC [13] was 0.5 µg/mL and the MIC [14] was 0.5 µg/mL. It also gave an MIC [15] of 0.5 µg/mL and a Ratio [16] of 8.
In the case of `Fc1ccc(C(Cn2ccnc2)[Se]c2ccccc2)c(F)c1` (centres undefined), the MIC [3] is reported as 0.5 µg/mL (≈ 1.38 µM), the MIC [4] is reported as 0.02 µg/mL (≈ 0.0551 µM) and the MIC [5] is reported as 0.25 µg/mL (≈ 0.688 µM). For the same compound, the MIC [6] was 0.5 µg/mL (≈ 1.38 µM), the MIC [7] was 0.25 µg/mL (≈ 0.688 µM) and the MIC [8] was 1 µg/mL (≈ 2.75 µM). For the same compound, the MIC [9] was 0.06 µg/mL (≈ 0.165 µM), the MIC [10] was 2 µg/mL (≈ 5.51 µM) and the MIC [11] was 1 µg/mL. For the same compound, the MIC [12] was 4 µg/mL, the MIC [13] was 2 µg/mL and the MIC [14] was 2 µg/mL. It also gave an MIC [15] of 1 µg/mL and a Ratio [16] of 8.
`CCc1ccc([Se]C(Cn2ccnc2)c2ccc(Cl)cc2Cl)cc1` (centres undefined) gave an MIC [3] of 0.5 µg/mL (≈ 1.18 µM), an MIC [4] of 0.03 µg/mL (≈ 0.0707 µM) and an MIC [5] of 0.5 µg/mL (≈ 1.18 µM). For the same compound, the MIC [6] was 0.5 µg/mL (≈ 1.18 µM), the MIC [7] was 0.06 µg/mL (≈ 0.141 µM) and the MIC [8] was 0.13 µg/mL (≈ 0.306 µM). It also gave an MIC [9] of 1 µg/mL (≈ 2.36 µM), an MIC [10] of 4 µg/mL (≈ 9.43 µM) and an MIC [11] of 8 µg/mL. For the same compound, the MIC [12] was 8 µg/mL, the MIC [13] was 4 µg/mL and the MIC [14] was 4 µg/mL. The MIC [15] was 15 µg/mL and the Ratio [16] was 8.
In the case of `COc1ccccc1[Se]C(Cn1ccnc1)c1ccc(Cl)cc1Cl` (centres undefined), the MIC [3] is reported as 0.06 µg/mL (≈ 0.141 µM), the MIC [4] is reported as 0.03 µg/mL (≈ 0.0704 µM) and the MIC [5] is reported as 0.25 µg/mL (≈ 0.587 µM). For the same compound, the MIC [6] was 0.5 µg/mL (≈ 1.17 µM), the MIC [7] was 0.13 µg/mL (≈ 0.305 µM) and the MIC [8] was 0.5 µg/mL (≈ 1.17 µM). The MIC [9] was 0.13 µg/mL (≈ 0.305 µM), the MIC [10] was 8 µg/mL (≈ 18.8 µM) and the MIC [11] was 2 µg/mL. For the same compound, the MIC [12] was 2 µg/mL, the MIC [13] was 2 µg/mL and the MIC [14] was 1 µg/mL. For the same compound, the MIC [15] was 8 µg/mL and the Ratio [16] was 8.
